The values that follow are results of earlier work, collected in patent US20210268046A1, “CANNABINOID & PROBIOTIC SUPPOSITORIES & METHODS OF USE” (HoneyHills TX, LLC, priority 2020, published 2021).

Each structure is given as a SMILES string.

The conditions of this series: for psychotic symptoms: acute paranoid schizophrenia.

As to `CCN1CCCC1CNC(=O)c1cc(S(=O)(=O)CC)c(N)cc1OC` (stereo not drawn) [Amisuipride], the psychotic symptoms result is given as “significant decrease”.
As to `C=C(C)[C@@H]1CCC(C)=C[C@H]1c1c(O)cc(CCCCC)cc1O` [cannabidiol, Cannabidiol], the psychotic symptoms result is “significant decrease”. Moreover, the side effects entry (compared with Amisuipride) is listed as “fewer side effects”.
